From patent US11987588B2, “Modulators of the beta-3 adrenergic receptor useful for the treatment or prevention of heart failure and disorders related thereto” (Arena Pharmaceuticals, Inc., priority 2017, dated 2024)

Molecular target: Beta-3 Adrenergic Receptor (Homo sapiens (Human), UniProt P13945)
Assay: Homogeneous Time-Resolved Fluorescence (HTRF) cAMP antagonist assay, IC50 determination
Type: cell-based
Details: CHO-K1 cells stably expressing recombinant receptor, isoproterenol at EC90
Procedure, shortened: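 Antagonist mode: isoproterenol at its predetermined EC90 added after compound to recombinant CHO-K1 cells in IBMX-containing PBS, 1 h, room temperature. Compounds tested as 5-fold, 10-point dilutions, top final typically 10 or 100 μM. HTRF signal converted to cAMP via standard curve, giving IC50.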

Chain of Beta-3 Adrenergic Receptor (P13945 whole entry, species assumed): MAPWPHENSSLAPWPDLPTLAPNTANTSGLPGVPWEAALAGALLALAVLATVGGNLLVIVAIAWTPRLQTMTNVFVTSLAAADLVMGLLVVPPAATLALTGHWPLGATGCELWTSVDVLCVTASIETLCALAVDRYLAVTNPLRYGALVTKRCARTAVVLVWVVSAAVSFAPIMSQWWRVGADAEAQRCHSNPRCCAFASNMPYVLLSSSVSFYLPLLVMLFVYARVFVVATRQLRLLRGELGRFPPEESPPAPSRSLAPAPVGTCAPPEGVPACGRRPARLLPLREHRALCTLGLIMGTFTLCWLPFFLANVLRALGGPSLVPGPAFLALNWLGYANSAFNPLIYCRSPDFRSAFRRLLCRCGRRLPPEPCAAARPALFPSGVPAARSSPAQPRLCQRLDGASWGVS

Structure (SMILES)	IC50 [nM]
CNS(=O)(=O)c1cccc(OC[C@@H](O)CNC2COC3(CCN(S(=O)(=O)c4cccnc4)CC3)C2)c1 (stereo partly drawn) [Compound 324, 3-((2S)-2-hydroxy-3-(8-(pyridin-3-ylsulfonyl)-1-oxa-8-azaspiro[4.5]decan-3-ylamino)propoxy)-N-methylbenzenesulfonamide]	78
CNS(=O)(=O)c1cccc(OC[C@@H](O)CNC2COC3(CCN(S(=O)(=O)c4ccc5[nH]ncc5c4)CC3)C2)c1 (stereo partly drawn) [Compound 325, 3-((2S)-3-(8-(1H-indazol-5-ylsulfonyl)-1-oxa-8-azaspiro[4.5]decan-3-ylamino)-2-hydroxypropoxy)-N-methylbenzenesulfonamide]	42.7
CNS(=O)(=O)c1cccc(OC[C@@H](O)CNC2COC3(CCN(S(=O)(=O)c4ccc5oncc5c4)CC3)C2)c1 (stereo partly drawn) [Compound 327, 3-((2S)-3-(8-(benzo[d]isoxazol-5-ylsulfonyl)-1-oxa-8-azaspiro[4.5]decan-3-ylamino)-2-hydroxypropoxy)-N-methylbenzenesulfonamide]	92.1
CNS(=O)(=O)c1cccc(OC[C@@H](O)CNC2COC3(CCN(S(=O)(=O)c4ccc5cn[nH]c5c4)CC3)C2)c1 (stereo partly drawn) [Compound 328, 3-((2S)-3-(8-(1H-indazol-6-ylsulfonyl)-1-oxa-8-azaspiro[4.5]decan-3-ylamino)-2-hydroxypropoxy)-N-methylbenzenesulfonamide]	37
CCn1ncc(S(=O)(=O)N2CCC3(CC2)CC(NC[C@H](O)COc2cccc(S(=O)(=O)NC)c2)CO3)c1C (stereo partly drawn) [Compound 329, 3-((2S)-3-(8-(1-ethyl-5-methyl-1H-pyrazol-4-ylsulfonyl)-1-oxa-8-azaspiro[4.5]decan-3-ylamino)-2-hydroxypropoxy)-N-methylbenzenesulfonamide]	156
CNS(=O)(=O)c1cccc(OC[C@@H](O)CNC2COC3(CCN(S(=O)(=O)c4ccc5c(c4)CCO5)CC3)C2)c1 (stereo partly drawn) [Compound 330, 3-((2S)-3-(8-(2,3-dihydrobenzofuran-5-ylsulfonyl)-1-oxa-8-azaspiro[4.5]decan-3-ylamino)-2-hydroxypropoxy)-N-methylbenzenesulfonamide]	36.7
CNS(=O)(=O)c1cccc(OC[C@@H](O)CNC2COC3(CCN(S(=O)(=O)c4cccc(-c5ccc(CNCC#N)cc5)c4)CC3)C2)c1 (stereo partly drawn) [Compound 338, 3-((2S)-3-(8-(4′-((cyanomethylamino)methyl)biphenyl-3-ylsulfonyl)-1-oxa-8-azaspiro[4.5]decan-3-ylamino)-2-hydroxypropoxy)-N-methylbenzenesulfonamide]	47.1
CNS(=O)(=O)c1cccc(OC[C@@H](O)CNC2COC3(CCN(S(=O)(=O)c4cccc(-c5ccc(CNCC(F)F)cc5)c4)CC3)C2)c1 (stereo partly drawn) [Compound 339, 3-((2S)-3-(8-(4′-((2,2-difluoroethylamino)methyl)biphenyl-3-ylsulfonyl)-1-oxa-8-azaspiro[4.5]decan-3-ylamino)-2-hydroxypropoxy)-N-methylbenzenesulfonamide]	42.4
CNS(=O)(=O)c1cccc(OC[C@@H](O)CNC2COC3(CCN(S(=O)(=O)c4cccc(-c5ccc(CNCCOC)cc5)c4)CC3)C2)c1 (stereo partly drawn) [Compound 340, 3-((2S)-2-hydroxy-3-(8-(4′-((2-methoxyethylamino)methyl)biphenyl-3-ylsulfonyl)-1-oxa-8-azaspiro[4.5]decan-3-ylamino)propoxy)-N-methylbenzenesulfonamide]	30.9
CNS(=O)(=O)c1cccc(OC[C@@H](O)CNC2COC3(CCN(S(=O)(=O)c4cncc(-c5ccc(CN)cc5)c4)CC3)C2)c1 (stereo partly drawn) [Compound 341, 3-((2S)-3-(8-(5-(4-(aminomethyl)phenyl)pyridin-3-ylsulfonyl)-1-oxa-8-azaspiro[4.5]decan-3-ylamino)-2-hydroxypropoxy)-N-methylbenzenesulfonamide]	28.5
CNS(=O)(=O)c1cccc(OC[C@@H](O)CNC2COC3(CCN(S(=O)(=O)c4cncc(-c5cnn(C)c5)c4)CC3)C2)c1 (stereo partly drawn) [Compound 342, 3-((2S)-2-hydroxy-3-(8-(5-(1-methyl-1H-pyrazol-4-yl)pyridin-3-ylsulfonyl)-1-oxa-8-azaspiro[4.5]decan-3-ylamino)propoxy)-N-methylbenzenesulfonamide]	42.6

Stronger by IC50, values ahead:

IC50 [nM]	Structure (SMILES)
27.3	CNS(=O)(=O)c1cccc(OC[C@@H](O)CNC2COC3(CCN(S(=O)(=O)c4ccc5c(c4)N(C(C)C)CCO5)CC3)C2)c1 (stereo partly drawn) [Compound 334, 3-((2S)-2-hydroxy-3-(8-(4-isopropyl-3,4-dihydro-2H-benzo[b][1,4]oxazin-6-ylsulfonyl)-1-oxa-8-azaspiro[4.5]decan-3-ylamino)propoxy)-N-methylbenzenesulfonamide]
24.8	CNS(=O)(=O)c1cccc(OC[C@@H](O)CNC2COC3(CCN(S(=O)(=O)c4ccc5ncccc5c4)CC3)C2)c1 (stereo partly drawn) [Compound 323, 3-((2S)-2-hydroxy-3-(8-(quinolin-6-ylsulfonyl)-1-oxa-8-azaspiro[4.5]decan-3-ylamino)propoxy)-N-methylbenzenesulfonamide]
19.6	CNS(=O)(=O)c1cccc(OC[C@@H](O)CNC2COC3(CCN(S(=O)(=O)c4ccc5occc5c4)CC3)C2)c1 (stereo partly drawn) [Compound 331, 3-((2S)-3-(8-(benzofuran-5-ylsulfonyl)-1-oxa-8-azaspiro[4.5]decan-3-ylamino)-2-hydroxypropoxy)-N-methylbenzenesulfonamide]
18.6	CNS(=O)(=O)c1cccc(OC[C@@H](O)CNC2COC3(CCN(S(=O)(=O)c4cncc(Br)c4)CC3)C2)c1 (stereo partly drawn) [Compound 337, 3-((2S)-3-(8-(5-bromopyridin-3-ylsulfonyl)-1-oxa-8-azaspiro[4.5]decan-3-ylamino)-2-hydroxypropoxy)-N-methylbenzenesulfonamide]
17.9	CNS(=O)(=O)c1cccc(OC[C@@H](O)CNC2COC3(CCN(S(=O)(=O)c4ccc5c(c4)OCCO5)CC3)C2)c1 (stereo partly drawn) [Compound 332, 3-((2S)-3-(8-(2,3-dihydrobenzo[b][1,4]dioxin-6-ylsulfonyl)-1-oxa-8-azaspiro[4.5]decan-3-ylamino)-2-hydroxypropoxy)-N-methylbenzenesulfonamide]
15.3	CNS(=O)(=O)c1cccc(OC[C@@H](O)CN[C@H]2COC3(CCN(S(=O)(=O)c4cnc5ccccc5c4)CC3)C2)c1 [Compound 336, 3-((S)-2-hydroxy-3-((R)-8-(quinolin-3-ylsulfonyl)-1-oxa-8-azaspiro[4.5]decan-3-ylamino)propoxy)-N-methylbenzenesulfonamide]
12.1	CNS(=O)(=O)c1cccc(OC[C@@H](O)CN[C@@H]2COC3(CCN(S(=O)(=O)c4cnc5ccccc5c4)CC3)C2)c1 [Compound 335, 3-((S)-2-hydroxy-3-((S)-8-(quinolin-3-ylsulfonyl)-1-oxa-8-azaspiro[4.5]decan-3-ylamino)propoxy)-N-methylbenzenesulfonamide]
11.7	CNS(=O)(=O)c1cccc(OC[C@@H](O)CNC2COC3(CCN(S(=O)(=O)c4cc5ccccc5o4)CC3)C2)c1 (stereo partly drawn) [Compound 326, 3-((2S)-3-(8-(benzofuran-2-ylsulfonyl)-1-oxa-8-azaspiro[4.5]decan-3-ylamino)-2-hydroxypropoxy)-N-methylbenzenesulfonamide]
9.02	CCN1CCOc2ccc(S(=O)(=O)N3CCC4(CC3)CC(NC[C@H](O)COc3cccc(S(=O)(=O)NC)c3)CO4)cc21 (stereo partly drawn) [Compound 333, 3-((2S)-3-(8-(4-ethyl-3,4-dihydro-2H-benzo[b][1,4]oxazin-6-ylsulfonyl)-1-oxa-8-azaspiro[4.5]decan-3-ylamino)-2-hydroxypropoxy)-N-methylbenzenesulfonamide]
